Columns and labels:
Assay type in all cases: binding
[1] = target: kinases (KINOMEscan panel) (Homo sapiens, UniProt Q16816); conditions: PHKG1; NEW KINOMEscan
[2] = target: kinases (KINOMEscan panel) (Homo sapiens, UniProt P36888, D835V); conditions: NEW KINOMEscan
[3] = target: kinases (KINOMEscan panel) (Homo sapiens, UniProt Q9Y2H9); conditions: MAST1; NEW KINOMEscan
[4] = target: kinases (KINOMEscan panel) (Homo sapiens, UniProt P48729); conditions: CSNK1A1; NEW KINOMEscan
[5] = target: kinases (KINOMEscan panel) (Homo sapiens, UniProt Q15746); conditions: kinase MYLK; NEW KINOMEscan
kinases (KINOMEscan panel) (Homo sapiens, UniProt Q15746), sequence (Q15746 whole entry): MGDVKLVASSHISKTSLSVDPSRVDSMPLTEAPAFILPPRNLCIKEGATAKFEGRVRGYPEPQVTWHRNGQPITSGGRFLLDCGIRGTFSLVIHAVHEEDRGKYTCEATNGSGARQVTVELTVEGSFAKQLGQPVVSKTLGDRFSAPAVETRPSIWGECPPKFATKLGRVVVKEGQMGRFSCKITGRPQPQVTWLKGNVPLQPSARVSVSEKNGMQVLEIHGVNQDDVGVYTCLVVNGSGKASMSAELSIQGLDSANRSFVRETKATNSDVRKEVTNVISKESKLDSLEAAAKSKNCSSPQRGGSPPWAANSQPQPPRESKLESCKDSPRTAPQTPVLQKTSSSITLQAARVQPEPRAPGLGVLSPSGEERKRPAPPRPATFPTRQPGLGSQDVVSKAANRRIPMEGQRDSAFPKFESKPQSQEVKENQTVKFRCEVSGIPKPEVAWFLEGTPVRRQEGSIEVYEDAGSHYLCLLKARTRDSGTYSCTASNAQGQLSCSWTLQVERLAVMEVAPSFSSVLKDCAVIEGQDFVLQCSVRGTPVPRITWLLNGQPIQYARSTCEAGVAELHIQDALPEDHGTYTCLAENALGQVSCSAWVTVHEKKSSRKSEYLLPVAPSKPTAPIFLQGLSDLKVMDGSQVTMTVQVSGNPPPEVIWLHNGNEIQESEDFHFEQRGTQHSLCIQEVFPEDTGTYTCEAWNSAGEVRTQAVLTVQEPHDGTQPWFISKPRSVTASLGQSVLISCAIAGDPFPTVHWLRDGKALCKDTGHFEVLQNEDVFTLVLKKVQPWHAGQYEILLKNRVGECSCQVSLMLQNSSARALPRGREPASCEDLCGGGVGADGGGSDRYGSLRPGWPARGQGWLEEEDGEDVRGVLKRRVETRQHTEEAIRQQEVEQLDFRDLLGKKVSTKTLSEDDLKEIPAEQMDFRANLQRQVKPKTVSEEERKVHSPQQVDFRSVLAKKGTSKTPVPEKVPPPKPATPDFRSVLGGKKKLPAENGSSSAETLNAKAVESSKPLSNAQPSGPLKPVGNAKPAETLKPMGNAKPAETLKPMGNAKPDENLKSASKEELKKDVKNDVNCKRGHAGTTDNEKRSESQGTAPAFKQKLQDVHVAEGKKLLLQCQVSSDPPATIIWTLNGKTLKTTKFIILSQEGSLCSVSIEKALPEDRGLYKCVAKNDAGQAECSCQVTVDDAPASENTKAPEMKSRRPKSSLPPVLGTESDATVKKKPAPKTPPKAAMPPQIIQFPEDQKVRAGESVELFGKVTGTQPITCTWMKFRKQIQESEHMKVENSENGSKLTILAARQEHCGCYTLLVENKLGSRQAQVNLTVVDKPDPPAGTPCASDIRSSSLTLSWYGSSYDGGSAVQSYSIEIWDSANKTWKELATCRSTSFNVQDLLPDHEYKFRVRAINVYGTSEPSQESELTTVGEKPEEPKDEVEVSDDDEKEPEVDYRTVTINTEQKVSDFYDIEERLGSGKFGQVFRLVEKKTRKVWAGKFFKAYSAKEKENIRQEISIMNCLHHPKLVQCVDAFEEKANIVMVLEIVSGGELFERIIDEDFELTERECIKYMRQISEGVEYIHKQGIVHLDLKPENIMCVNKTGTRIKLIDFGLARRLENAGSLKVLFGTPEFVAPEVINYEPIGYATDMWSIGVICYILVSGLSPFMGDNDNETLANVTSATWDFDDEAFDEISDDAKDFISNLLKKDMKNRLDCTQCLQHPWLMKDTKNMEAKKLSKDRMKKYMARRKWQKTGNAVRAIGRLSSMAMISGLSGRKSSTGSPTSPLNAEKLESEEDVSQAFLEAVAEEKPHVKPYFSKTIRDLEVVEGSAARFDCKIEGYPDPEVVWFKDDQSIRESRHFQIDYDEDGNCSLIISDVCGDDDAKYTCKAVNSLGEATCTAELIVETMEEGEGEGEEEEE

[6] = target: T1, kinases (KINOMEscan panel) (Homo sapiens, UniProt Q8IVH8); conditions: NEW KINOMEscan
T1 sequence (Q8IVH8 1-894): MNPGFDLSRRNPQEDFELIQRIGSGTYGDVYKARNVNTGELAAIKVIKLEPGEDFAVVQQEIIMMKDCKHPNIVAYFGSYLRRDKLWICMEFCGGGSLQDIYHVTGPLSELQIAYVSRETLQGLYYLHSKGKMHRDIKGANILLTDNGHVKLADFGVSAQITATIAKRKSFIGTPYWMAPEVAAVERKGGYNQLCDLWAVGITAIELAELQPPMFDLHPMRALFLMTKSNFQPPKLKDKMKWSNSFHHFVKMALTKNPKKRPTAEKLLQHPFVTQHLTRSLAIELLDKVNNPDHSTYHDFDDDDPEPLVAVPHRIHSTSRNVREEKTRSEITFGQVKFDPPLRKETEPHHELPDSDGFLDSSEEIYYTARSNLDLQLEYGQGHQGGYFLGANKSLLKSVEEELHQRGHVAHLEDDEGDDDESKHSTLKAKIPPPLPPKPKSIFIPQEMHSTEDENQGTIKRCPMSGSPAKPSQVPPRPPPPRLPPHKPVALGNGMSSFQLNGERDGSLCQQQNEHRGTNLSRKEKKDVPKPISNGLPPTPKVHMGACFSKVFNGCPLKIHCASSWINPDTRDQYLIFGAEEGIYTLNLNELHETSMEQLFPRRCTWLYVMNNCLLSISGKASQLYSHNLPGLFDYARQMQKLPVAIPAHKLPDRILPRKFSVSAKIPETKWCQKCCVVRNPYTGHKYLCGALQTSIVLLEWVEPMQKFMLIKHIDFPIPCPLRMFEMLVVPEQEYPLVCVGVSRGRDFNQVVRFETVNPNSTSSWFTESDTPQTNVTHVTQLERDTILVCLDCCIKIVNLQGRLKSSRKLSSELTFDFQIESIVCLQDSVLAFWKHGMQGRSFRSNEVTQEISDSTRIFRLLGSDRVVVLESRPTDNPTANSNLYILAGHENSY

[7] = target: T2, kinases (KINOMEscan panel) (Homo sapiens, UniProt P29323); conditions: EPHB2; NEW KINOMEscan
T2 sequence (P29323 19-1055): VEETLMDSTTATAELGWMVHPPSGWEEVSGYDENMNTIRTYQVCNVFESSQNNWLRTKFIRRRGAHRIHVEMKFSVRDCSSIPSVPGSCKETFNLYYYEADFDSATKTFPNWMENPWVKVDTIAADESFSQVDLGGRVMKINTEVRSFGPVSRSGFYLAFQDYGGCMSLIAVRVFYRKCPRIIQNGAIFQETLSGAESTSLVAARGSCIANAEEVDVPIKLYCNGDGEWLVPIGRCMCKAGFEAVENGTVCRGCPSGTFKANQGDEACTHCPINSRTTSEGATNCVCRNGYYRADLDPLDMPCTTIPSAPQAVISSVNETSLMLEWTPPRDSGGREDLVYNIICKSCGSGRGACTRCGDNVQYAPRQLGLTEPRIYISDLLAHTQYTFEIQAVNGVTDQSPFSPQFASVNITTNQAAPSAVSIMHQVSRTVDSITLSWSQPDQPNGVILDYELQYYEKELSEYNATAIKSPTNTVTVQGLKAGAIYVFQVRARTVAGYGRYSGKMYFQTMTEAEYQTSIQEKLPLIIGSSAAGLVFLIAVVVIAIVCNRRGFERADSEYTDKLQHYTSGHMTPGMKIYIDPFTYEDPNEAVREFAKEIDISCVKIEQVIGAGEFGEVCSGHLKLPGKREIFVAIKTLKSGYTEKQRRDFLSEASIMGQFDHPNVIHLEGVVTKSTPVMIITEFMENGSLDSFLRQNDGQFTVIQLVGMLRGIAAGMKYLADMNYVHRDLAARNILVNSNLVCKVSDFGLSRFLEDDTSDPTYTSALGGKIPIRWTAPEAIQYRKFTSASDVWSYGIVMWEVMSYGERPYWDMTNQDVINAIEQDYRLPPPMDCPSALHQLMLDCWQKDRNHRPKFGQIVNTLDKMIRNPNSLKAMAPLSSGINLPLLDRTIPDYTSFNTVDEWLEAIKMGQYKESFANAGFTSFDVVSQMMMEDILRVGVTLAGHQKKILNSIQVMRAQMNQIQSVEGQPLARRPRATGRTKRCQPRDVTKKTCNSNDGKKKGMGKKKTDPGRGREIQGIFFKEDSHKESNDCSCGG

[8] = target: kinases (KINOMEscan panel) (Homo sapiens, UniProt Q9H2X6); conditions: NEW KINOMEscan
kinases (KINOMEscan panel) (Homo sapiens, UniProt Q9H2X6), sequence (Q9H2X6 whole entry): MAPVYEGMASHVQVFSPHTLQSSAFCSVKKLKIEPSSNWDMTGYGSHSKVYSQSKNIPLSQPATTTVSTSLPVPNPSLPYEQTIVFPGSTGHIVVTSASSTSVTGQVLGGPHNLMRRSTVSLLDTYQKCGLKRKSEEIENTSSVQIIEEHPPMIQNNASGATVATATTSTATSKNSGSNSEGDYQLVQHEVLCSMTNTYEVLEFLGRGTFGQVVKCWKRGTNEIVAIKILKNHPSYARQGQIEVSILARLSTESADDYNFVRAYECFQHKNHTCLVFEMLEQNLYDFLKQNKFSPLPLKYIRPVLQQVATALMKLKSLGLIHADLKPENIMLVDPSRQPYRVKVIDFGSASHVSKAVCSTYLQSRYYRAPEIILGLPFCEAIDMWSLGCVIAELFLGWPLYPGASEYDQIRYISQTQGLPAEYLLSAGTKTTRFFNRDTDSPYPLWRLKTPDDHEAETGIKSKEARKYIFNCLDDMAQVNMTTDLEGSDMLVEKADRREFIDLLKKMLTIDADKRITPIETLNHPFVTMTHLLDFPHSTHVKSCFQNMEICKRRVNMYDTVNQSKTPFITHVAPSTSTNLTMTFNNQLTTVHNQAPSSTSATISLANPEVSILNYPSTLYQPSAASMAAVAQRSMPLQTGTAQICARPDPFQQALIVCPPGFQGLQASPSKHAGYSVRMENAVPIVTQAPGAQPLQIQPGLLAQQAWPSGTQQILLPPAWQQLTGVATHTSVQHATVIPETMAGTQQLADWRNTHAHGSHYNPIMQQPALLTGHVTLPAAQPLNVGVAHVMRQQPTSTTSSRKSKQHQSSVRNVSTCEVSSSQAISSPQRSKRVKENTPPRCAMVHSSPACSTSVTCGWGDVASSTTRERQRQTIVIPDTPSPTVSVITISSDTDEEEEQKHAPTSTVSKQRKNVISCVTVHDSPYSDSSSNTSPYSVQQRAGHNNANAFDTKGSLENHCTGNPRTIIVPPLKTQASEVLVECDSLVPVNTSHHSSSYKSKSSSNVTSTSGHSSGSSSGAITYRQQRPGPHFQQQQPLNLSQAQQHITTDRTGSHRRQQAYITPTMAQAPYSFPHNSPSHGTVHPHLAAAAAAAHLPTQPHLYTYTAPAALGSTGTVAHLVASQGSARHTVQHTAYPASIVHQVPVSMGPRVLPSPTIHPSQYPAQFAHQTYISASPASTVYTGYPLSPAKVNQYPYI

[9] = target: kinases (KINOMEscan panel) (Homo sapiens, UniProt Q16584); conditions: kinase MAP3K11; NEW KINOMEscan

kinases (KINOMEscan panel) (Homo sapiens, UniProt P48729), sequence (P48729 whole entry): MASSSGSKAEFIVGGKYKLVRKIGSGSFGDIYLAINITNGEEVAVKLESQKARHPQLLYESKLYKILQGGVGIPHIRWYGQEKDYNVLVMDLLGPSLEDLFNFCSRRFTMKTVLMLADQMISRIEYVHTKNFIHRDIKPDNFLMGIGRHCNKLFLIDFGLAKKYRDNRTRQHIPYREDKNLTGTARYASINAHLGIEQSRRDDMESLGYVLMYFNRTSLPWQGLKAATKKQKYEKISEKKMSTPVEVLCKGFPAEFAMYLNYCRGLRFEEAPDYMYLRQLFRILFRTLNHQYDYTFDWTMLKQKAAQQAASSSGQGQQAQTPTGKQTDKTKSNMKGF
kinases (KINOMEscan panel) (Homo sapiens, UniProt Q9Y2H9), sequence (Q9Y2H9 whole entry): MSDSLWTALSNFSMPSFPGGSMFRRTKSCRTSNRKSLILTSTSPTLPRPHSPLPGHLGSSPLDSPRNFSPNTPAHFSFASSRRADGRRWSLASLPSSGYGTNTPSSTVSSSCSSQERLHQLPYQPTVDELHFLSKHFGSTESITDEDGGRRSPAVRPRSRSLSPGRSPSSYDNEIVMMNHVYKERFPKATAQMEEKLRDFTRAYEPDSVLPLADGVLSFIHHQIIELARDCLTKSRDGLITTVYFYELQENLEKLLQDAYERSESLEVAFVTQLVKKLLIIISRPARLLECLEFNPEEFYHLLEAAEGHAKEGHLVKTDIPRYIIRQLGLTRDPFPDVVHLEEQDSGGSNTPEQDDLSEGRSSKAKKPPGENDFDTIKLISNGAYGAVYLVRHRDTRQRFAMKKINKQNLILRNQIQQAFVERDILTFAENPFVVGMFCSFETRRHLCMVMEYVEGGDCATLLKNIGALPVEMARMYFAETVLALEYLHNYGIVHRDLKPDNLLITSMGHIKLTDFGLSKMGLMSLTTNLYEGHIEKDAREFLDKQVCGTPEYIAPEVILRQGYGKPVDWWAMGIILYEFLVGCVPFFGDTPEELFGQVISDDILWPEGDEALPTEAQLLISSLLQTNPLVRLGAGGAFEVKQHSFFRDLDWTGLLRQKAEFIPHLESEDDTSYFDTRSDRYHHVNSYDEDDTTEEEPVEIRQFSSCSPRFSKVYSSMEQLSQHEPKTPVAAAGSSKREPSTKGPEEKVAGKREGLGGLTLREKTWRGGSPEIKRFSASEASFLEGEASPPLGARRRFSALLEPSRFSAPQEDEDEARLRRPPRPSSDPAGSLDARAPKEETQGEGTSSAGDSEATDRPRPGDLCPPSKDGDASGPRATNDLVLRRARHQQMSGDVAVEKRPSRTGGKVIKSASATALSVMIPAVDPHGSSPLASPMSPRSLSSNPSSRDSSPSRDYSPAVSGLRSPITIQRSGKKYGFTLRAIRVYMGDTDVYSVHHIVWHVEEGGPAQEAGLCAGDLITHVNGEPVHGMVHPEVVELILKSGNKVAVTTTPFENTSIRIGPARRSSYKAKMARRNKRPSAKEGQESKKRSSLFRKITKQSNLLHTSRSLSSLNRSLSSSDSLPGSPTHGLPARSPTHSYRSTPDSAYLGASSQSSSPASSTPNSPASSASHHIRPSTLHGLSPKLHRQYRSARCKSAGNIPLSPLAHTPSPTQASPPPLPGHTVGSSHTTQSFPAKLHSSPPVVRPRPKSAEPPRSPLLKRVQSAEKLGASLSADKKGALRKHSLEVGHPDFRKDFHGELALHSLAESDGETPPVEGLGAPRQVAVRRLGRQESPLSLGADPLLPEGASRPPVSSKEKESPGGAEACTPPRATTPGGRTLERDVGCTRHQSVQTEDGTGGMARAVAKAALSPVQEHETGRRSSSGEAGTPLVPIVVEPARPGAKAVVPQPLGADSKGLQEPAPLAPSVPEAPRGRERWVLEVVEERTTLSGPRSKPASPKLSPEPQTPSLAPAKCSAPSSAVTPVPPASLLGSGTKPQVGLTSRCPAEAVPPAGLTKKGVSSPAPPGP

SMILES	KINOMEscan PHKG1 [1]	KINOMEscan FLT3(D835V) [2]	KINOMEscan MAST1 [3]	KINOMEscan CSNK1A1 [4]	KINOMEscan MYLK [5]	KINOMEscan MAP4K3 [6]	KINOMEscan EPHB2 [7]	KINOMEscan HIPK2 [8]	KINOMEscan MAP3K11 [9]
Cc1cccc(-c2nc(Nc3ccc4nn(C)cc4c3)c3ccccc3n2)n1 [NK167]	5	19	0	7	19	20	12	33	0
Cc1cccc(-c2nc(N(C)c3ccc4ncsc4c3)c3ccccc3n2)n1 [NK-161]	5	30	0	10	3	22	15	28	0
